Laboratory results published in ChEMBL document CHEMBL1909294, “Translating clinical findings into knowledge in drug safety evaluation--drug induced liver injury prediction system (DILIps)” (PLoS Comput Biol, 2011).

Legend:
[1] = system: Hepatotoxicity;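 as to HepSE bilirubinemia: bilirubinemia hepatic side effect score drawn from the DILIps training data, a prediction system for drug-induced liver injury; call rule not given here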;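 as to HepSE cholecystitis: Cholecystitis-related hepatic side effect score drawn from the DILIps (drug-induced liver injury prediction) training data set; call rule not given here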;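 as to HepSE cholelithiasis: hepatic side effect score for cholelithiasis, drawn from the DILIps training data for predicting drug-induced liver injury; call rule not given here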;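 as to HepSE cirrhosis: cirrhosis hepatic side effect score taken from the DILIps (drug-induced liver injury prediction) training set; call rule not given here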;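 as to HepSE elevated liver function tests: hepatic side effect score for raised liver function tests, as recorded in the DILIps training set used for predicting drug-induced liver injury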; as to HepSE hepatic failure: call rule not given here;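 as to HepSE hepatomegaly: hepatic side effect score for hepatomegaly, taken from the training set of the DILIps drug-induced liver injury prediction system; call rule not given here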
[2] = system: Hepatotoxicity; remark: listed apart in the source;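 as to HepSE bilirubinemia: bilirubinemia hepatic side effect score drawn from the DILIps training data, a prediction system for drug-induced liver injury; call rule not given here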;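 as to HepSE cholecystitis: Cholecystitis-related hepatic side effect score drawn from the DILIps (drug-induced liver injury prediction) training data set; call rule not given here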;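 as to HepSE cholelithiasis: hepatic side effect score for cholelithiasis, drawn from the DILIps training data for predicting drug-induced liver injury; call rule not given here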;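 as to HepSE cirrhosis: cirrhosis hepatic side effect score taken from the DILIps (drug-induced liver injury prediction) training set; call rule not given here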;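 as to HepSE elevated liver function tests: hepatic side effect score for raised liver function tests, as recorded in the DILIps training set used for predicting drug-induced liver injury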; as to HepSE hepatic failure: call rule not given here
[3] = system: Hepatotoxicity; remark: listed apart in the source;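 as to HepSE bilirubinemia: bilirubinemia hepatic side effect score drawn from the DILIps training data, a prediction system for drug-induced liver injury; call rule not given here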;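 as to HepSE cholecystitis: Cholecystitis-related hepatic side effect score drawn from the DILIps (drug-induced liver injury prediction) training data set; call rule not given here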;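 as to HepSE cholelithiasis: hepatic side effect score for cholelithiasis, drawn from the DILIps training data for predicting drug-induced liver injury; call rule not given here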;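 as to HepSE cirrhosis: cirrhosis hepatic side effect score taken from the DILIps (drug-induced liver injury prediction) training set; call rule not given here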;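 as to HepSE elevated liver function tests: hepatic side effect score for raised liver function tests, as recorded in the DILIps training set used for predicting drug-induced liver injury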; as to HepSE hepatic failure: call rule not given here
[4] = system: Hepatotoxicity; remark: listed apart in the source;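 as to HepSE bilirubinemia: bilirubinemia hepatic side effect score drawn from the DILIps training data, a prediction system for drug-induced liver injury; call rule not given here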;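 as to HepSE cholecystitis: Cholecystitis-related hepatic side effect score drawn from the DILIps (drug-induced liver injury prediction) training data set; call rule not given here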;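 as to HepSE cholelithiasis: hepatic side effect score for cholelithiasis, drawn from the DILIps training data for predicting drug-induced liver injury; call rule not given here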;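 as to HepSE cirrhosis: cirrhosis hepatic side effect score taken from the DILIps (drug-induced liver injury prediction) training set; call rule not given here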;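 as to HepSE elevated liver function tests: hepatic side effect score for raised liver function tests, as recorded in the DILIps training set used for predicting drug-induced liver injury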; as to HepSE hepatic failure: call rule not given here
[5] = system: Hepatotoxicity; remark: listed apart in the source; as to HepSE hepatic failure: call rule not given here
[6] = system: Hepatotoxicity; remark: listed apart in the source; as to HepSE hepatic failure: call rule not given here
[7] = system: Hepatotoxicity; remark: listed apart in the source
[8] = system: Hepatotoxicity; remark: listed apart in the source
[9] = system: Hepatotoxicity; remark: listed apart in the source
[10] = system: Hepatotoxicity; remark: listed apart in the source
[11] = system: Hepatotoxicity; remark: listed apart in the source
[12] = system: Hepatotoxicity; remark: listed apart in the source
[13] = system: Hepatotoxicity; remark: listed apart in the source
[14] = system: Hepatotoxicity; remark: listed apart in the source

Molecule | HepSE_bilirubinemia [1] | HepSE_cholecystitis [2] | HepSE_cholelithiasis [3] | HepSE_cirrhosis [4] | HepSE_elevated liver function tests [5] | HepSE_hepatic failure [6] | HepSE_hepatic necrosis [7] | HepSE_hepatitis [8] | HepSE_hepatomegaly [9] | HepSE_jaundice [10] | HepSE_liver disease [11] | HepSE_liver fatty [12] | HepSE_liver function tests abnormal [13] | HepSE_Combined Scores [14] | also measured
Clc1ccc2c(c1)C(c1ccccc1)=NCc1nncn1-2 [ESTAZOLAM] | 0 | 0 | 0 | 0 | 0 | 0 | 0 | 0 | 0 | 0 | 0 | 0 | 0 | 0 | –
Oc1ccc2c3c1O[C@H]1[C@@H](O)CC[C@@]4(O)[C@@H](C2)N(CC2CCC2)CC[C@]314 [NALBUPHINE] | 0 | 0 | 0 | 0 | 0 | 0 | 0 | 0 | 0 | 0 | 0 | 0 | 0 | 0 | –
CN(C)CCC=C1c2ccccc2C=Cc2ccccc21 [CYCLOBENZAPRINE] | – | – | – | – | – | – | – | – | – | – | – | – | – | – | HepSE_bilirubinemia ([1]; Liver): 0; HepSE_cholecystitis ([2]; Liver): 0; HepSE_cholelithiasis ([3]; Liver): 0; HepSE_cirrhosis ([4]; Liver): 0; HepSE_elevated liver function tests ([5]; Liver): 0; HepSE_hepatic failure ([6]; Liver): 0; HepSE_hepatic necrosis ([7]; Liver): 0; HepSE_hepatitis ([8]; Liver): 1; HepSE_hepatomegaly ([9]; Liver): 0; HepSE_jaundice ([10]; Liver): 1; HepSE_liver disease ([11]; Liver): 0; HepSE_liver fatty ([12]; Liver): 0; HepSE_liver function tests abnormal ([13]; Liver): 0; HepSE_Combined Scores ([14]; Liver): 2
C[C@@H](O[C@H]1OCCN(Cc2n[nH]c(=O)[nH]2)[C@H]1c1ccc(F)cc1)c1cc(C(F)(F)F)cc(C(F)(F)F)c1 [APREPITANT] | 0 | 0 | 0 | 0 | 0 | 0 | 0 | 0 | 0 | 0 | 0 | 0 | 0 | 0 | –
CN1CC(=O)N2[C@H](c3ccc4c(c3)OCO4)c3[nH]c4ccccc4c3C[C@@H]2C1=O | 0 | 0 | 0 | 0 | 0 | 0 | 0 | 0 | 0 | 0 | 0 | 0 | 1 | 1 | –
CN(C)CCc1c[nH]c2ccc(Cn3cncn3)cc12 [RIZATRIPTAN] | 0 | 0 | 0 | 0 | 0 | 0 | 0 | 0 | 0 | 0 | 0 | 0 | 0 | 0 | –
CO[C@H]1/C=C/O[C@@]2(C)Oc3c(C)c(O)c4c(O)c(c5c(nc6cc(C)ccn65)c4c3C2=O)NC(=O)/C(C)=C\C=C\[C@H](C)[C@H](O)[C@@H](C)[C@@H](O)[C@@H](C)[C@H](OC(C)=O)[C@@H]1C [RIFAXIMIN] | 0 | 0 | 0 | 0 | 0 | 0 | 0 | 0 | 0 | 0 | 0 | 0 | 0 | 0 | –
Nc1nc(=O)n([C@@H]2CS[C@H](CO)O2)cc1F [EMTRICITABINE] | – | – | – | – | – | – | – | – | – | – | – | – | – | – | HepSE_bilirubinemia ([1]; Liver): 0; HepSE_cholecystitis ([2]; Liver): 0; HepSE_cholelithiasis ([3]; Liver): 0; HepSE_cirrhosis ([4]; Liver): 0; HepSE_elevated liver function tests ([5]; Liver): 0; HepSE_hepatic failure ([6]; Liver): 0; HepSE_hepatic necrosis ([7]; Liver): 0; HepSE_hepatitis ([8]; Liver): 0; HepSE_hepatomegaly ([9]; Liver): 0; HepSE_jaundice ([10]; Liver): 0; HepSE_liver disease ([11]; Liver): 0; HepSE_liver fatty ([12]; Liver): 0; HepSE_liver function tests abnormal ([13]; Liver): 0; HepSE_Combined Scores ([14]; Liver): 0
CC1(C)O[C@@H]2C[C@H]3[C@@H]4C[C@H](F)C5=CC(=O)C=C[C@]5(C)[C@@]4(F)[C@@H](O)C[C@]3(C)[C@]2(C(=O)CO)O1 [FLUOCINOLONE ACETONIDE] | 0 | 0 | 0 | 0 | 0 | 0 | 0 | 0 | 0 | 0 | 0 | 0 | 0 | 0 | –
CC(N)Cc1ccccc1 (stereo not drawn) [AMPHETAMINE] | 0 | 0 | 0 | 0 | 0 | 0 | 0 | 0 | 0 | 0 | 0 | 0 | 0 | 0 | –
CC(C)OC(=O)CCC/C=C\C[C@@H]1[C@@H](CC[C@@H](O)CCc2ccccc2)[C@H](O)C[C@@H]1O [LATANOPROST] | 0 | 0 | 0 | 0 | 0 | 0 | 0 | 0 | 0 | 0 | 0 | 0 | 0 | 0 | –
O=c1[nH]c2ccccc2n1C1CCN(CCCC(c2ccc(F)cc2)c2ccc(F)cc2)CC1 [PIMOZIDE] | 0 | 0 | 0 | 0 | 0 | 0 | 0 | 0 | 0 | 0 | 0 | 0 | 0 | 0 | –
CARBOPLATIN | 0 | 0 | 0 | 0 | 0 | 0 | 0 | 0 | 0 | 0 | 0 | 0 | 1 | 1 | –
COc1cc2ncnc(Nc3ccc(F)c(Cl)c3)c2cc1OCCCN1CCOCC1 [GEFITINIB] | 0 | 0 | 0 | 0 | 0 | 0 | 0 | 0 | 0 | 0 | 0 | 0 | 0 | 0 | –
Cn1c(=O)c2[nH]cnc2n(C)c1=O.O [THEOPHYLLINE] | 0 | 0 | 0 | 0 | 0 | 0 | 0 | 0 | 0 | 0 | 0 | 0 | 0 | 0 | –
CCOC(=O)c1ncn2c1CN(C)C(=O)c1cc(F)ccc1-2 [FLUMAZENIL] | 0 | 0 | 0 | 0 | 0 | 0 | 0 | 0 | 0 | 0 | 0 | 0 | 0 | 0 | –
COC(=O)N[C@H](C(=O)N[C@@H](Cc1ccccc1)[C@@H](O)CN(Cc1ccc(-c2ccccn2)cc1)NC(=O)[C@@H](NC(=O)OC)C(C)(C)C)C(C)(C)C [ATAZANAVIR] | 1 | 1 | 1 | 0 | 0 | 0 | 0 | 1 | 1 | 1 | 0 | 1 | 0 | 7 | –
